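Values below derive from 48-hour exposures of cells grown in 96-well plates, with endpoints linearly interpolated between the two concentrations bracketing the appropriate inhibition level. GI50 marks 50% less growth. TGI marks complete inhibition of growth.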
What was measured:
Assay in all cases: NCI tumour cell line growth inhibition, 48 h
HOP-62 NSCLC = test system: HOP-62 NSCLC
A549 NSCLC = test system: A549 NSCLC
SF-539 CNS = test system: SF-539 CNS
MCF7 breast = test system: MCF7 breast
A498 renal = test system: A498 renal
HCC-2998 colon = test system: HCC-2998 colon
NCI-H460 lung = test system: NCI-H460 lung
SR leukemia = test system: SR leukemia
SK-MEL-28 melanoma = test system: SK-MEL-28 melanoma
BT-549 breast = test system: BT-549 breast

Row | Structure (SMILES) | GI50 (HOP-62 NSCLC) | TGI (HOP-62 NSCLC) | GI50 (A549 NSCLC) | TGI (A549 NSCLC) | GI50 (SF-539 CNS) | TGI (SF-539 CNS) | GI50 (MCF7 breast) | TGI (MCF7 breast) | GI50 (A498 renal) | TGI (A498 renal) | GI50 (HCC-2998 colon) | TGI (HCC-2998 colon) | GI50 (NCI-H460 lung) | TGI (NCI-H460 lung) | GI50 (SR leukemia) | TGI (SR leukemia) | GI50 (SK-MEL-28 melanoma) | TGI (SK-MEL-28 melanoma) | GI50 (BT-549 breast) | TGI (BT-549 breast)
1 | Cc1cc(-c2nc(C(=O)Nc3cc4oc(N5CCOCC5)nc4nc3N3CC[C@@H](O)C3)co2)ccn1 | 30.6 µM | > 100 µM | 28.9 µM | > 100 µM | 24 µM | > 100 µM | 84.1 µM | > 100 µM | 1.34 µM | 39.2 µM | 55 µM | > 100 µM | 44 µM | > 100 µM | 30.9 µM | > 100 µM | 56.2 µM | > 100 µM | 33 µM | > 100 µM
2 | C=CC(=O)Nc1cc(Nc2ncc(C(=O)OC(C)C)c(-c3cn(C)c4ccccc34)n2)c(OC)cc1N(C)CCN(C)C | 7.13 µM | 22.8 µM | 2.89 µM | 21.5 µM | 3.1 µM | 9.45 µM | 2.12 µM | 7.62 µM | 0.483 µM | 7.63 µM | 2.3 µM | 7.75 µM | 6.57 µM | 14.8 µM | 3.04 µM | > 33.7 µM | 2.43 µM | 6.55 µM | 7.41 µM | 21.4 µM
3 | CCC(=O)[C@H](C)[C@@H](OC(=O)[C@H](C)CC)[C@H](C)[C@H]1OC(CC)=C(C)C(=O)[C@@H]1C | 21.2 µM | 48.1 µM | 30.9 µM | > 100 µM | 18.1 µM | 33.1 µM | 26.3 µM | 89 µM | 25.2 µM | 73 µM | – | – | 15.7 µM | 36.2 µM | 13.5 µM | 42.3 µM | 21.2 µM | 57.4 µM | 16.6 µM | 34.9 µM
4 | OCCN(CCO)c1ncnc2c1ncn2Cc1ccc(CCl)cc1 | 23.8 µM | 41.1 µM | 18.3 µM | 53.7 µM | 10.3 µM | 24.2 µM | 6.3 µM | 32.5 µM | 14.2 µM | 28.1 µM | 15.4 µM | 28.9 µM | 14.2 µM | 30.8 µM | 6.94 µM | > 100 µM | 23.8 µM | 63.8 µM | 11.7 µM | 24.6 µM
5 | c1ccc(-c2nc(-c3ccccc3SSc3ccccc3-c3nc(-c4ccccc4)nn3-c3ccccc3)n(-c3ccccc3)n2)cc1 | – | – | – | > 100 µM | – | > 100 µM | – | > 100 µM | – | > 100 µM | – | > 100 µM | – | > 100 µM | – | > 100 µM | – | > 100 µM | – | > 100 µM
6 | COc1ccc(CC2c3cc4c(cc3CCN2C)OCO4)c(C=O)c1OC (stereo not given) | – | – | – | > 100 µM | – | > 100 µM | – | > 100 µM | – | > 100 µM | – | > 100 µM | – | > 100 µM | – | – | – | > 100 µM | – | > 100 µM
7 | Cc1nc2sccn2c1-c1csc(Nc2ccccc2Cl)n1 | 4.75 µM | 70.5 µM | 2.98 µM | 44.4 µM | 3.2 µM | 16.3 µM | 2.81 µM | 23 µM | 1.24 µM | 12.7 µM | 6.25 µM | 45.3 µM | 3.19 µM | 15.8 µM | – | – | 6.24 µM | > 100 µM | 3.6 µM | 23.4 µM
8 | Clc1ccccc1C(SCc1ccccc1)SCc1ccccc1 | – | > 100 µM | – | > 100 µM | – | > 100 µM | – | > 100 µM | – | – | – | > 100 µM | – | > 100 µM | – | > 100 µM | – | > 100 µM | – | > 100 µM
9 | COC(CCC[N+](C)(C)C)CC[N+](C)(C)C (stereo not given) | – | > 100 µM | – | > 100 µM | – | > 100 µM | – | > 100 µM | – | – | – | > 100 µM | – | > 100 µM | – | > 100 µM | – | > 100 µM | – | > 100 µM
10 | CC(C)=CCC\C(C)=C/C=C/C(C)=C\C=C\C(C)=C/C=C/C=C(C)\C=C\C=C(C)/C=C/C=C(/C)CCC=C(C)C | – | > 100 µM | – | > 100 µM | – | > 100 µM | – | > 100 µM | – | > 100 µM | – | > 100 µM | – | – | – | > 100 µM | – | > 100 µM | – | > 100 µM
11 | CCN1/C(=C\c2cc[n+](CC)c3ccccc23)C=Cc2ccccc21 | – | – | 0.215 µM | 18.1 µM | 0.22 µM | 11 µM | 0.114 µM | 1.85 µM | 0.187 µM | 2.78 µM | 0.141 µM | 2.61 µM | 0.193 µM | 1.09 µM | 0.152 µM | 4.86 µM | 0.275 µM | 2.33 µM | 0.0811 µM | 1.5 µM
12 | O=C(CCNC12CC3CC(CC(C3)C1)C2)c1ccccc1 | – | – | – | > 100 µM | – | 40.3 µM | – | 34.9 µM | – | 62.9 µM | – | 26.5 µM | – | 69.6 µM | – | 37.1 µM | – | 75.4 µM | – | 85.3 µM
13 | C[N+](C)(C)CC(=O)N/N=C(/CC(=O)CC(C1=C(O)c2ccccc2OC1)c1ccccc1)C(=O)Nc1cccc(Cl)c1 (stereo not given) | – | > 100 µM | – | > 100 µM | – | > 100 µM | – | > 100 µM | – | > 100 µM | – | > 100 µM | – | – | – | > 100 µM | – | > 100 µM | – | > 100 µM
14 | FC(F)(F)c1cccc(Nc2nc(-c3ccccc3)nc3ncccc23)c1 | 7.18 µM | 22.2 µM | – | – | 5.06 µM | 17.5 µM | 3.72 µM | 14.7 µM | 1.7 µM | 5.21 µM | 4.91 µM | 30.2 µM | 3.45 µM | 12.6 µM | 2.61 µM | 13.3 µM | 7.93 µM | 74.4 µM | 5.52 µM | 30.6 µM
15 | CCN1CCN(Cc2ccc(NC(=O)c3cccc(C#Cc4cccc5[nH]nc(N)c45)c3)cc2C(F)(F)F)CC1 | – | – | 1.13 µM | 2.48 µM | 0.205 µM | 0.709 µM | – | – | 0.108 µM | 1.07 µM | – | – | 0.39 µM | 1.66 µM | 0.238 µM | 0.732 µM | 0.568 µM | 1.78 µM | 1.1 µM | 2.41 µM
16 | CCN(CC)N=Nc1c(C(N)=O)n[nH]c1C | – | > 100 µM | – | > 100 µM | – | > 100 µM | – | > 100 µM | – | > 100 µM | – | > 100 µM | – | > 100 µM | – | – | – | > 100 µM | – | > 100 µM
17 | COC(=O)/C=C1\S/C(=N\NC(=O)c2cc3ccc2/C=C\c2ccc(cc2)/C=C\3)N(c2ccccc2)C1=O | 2.68 µM | 6.97 µM | 2.83 µM | 8.37 µM | 1.79 µM | 3.32 µM | 1.87 µM | 4.95 µM | – | – | 1.78 µM | 3.45 µM | 2.08 µM | 4.29 µM | 2.46 µM | > 100 µM | 2.97 µM | 9.87 µM | 2.22 µM | 5.35 µM

— PubChem BioAssay (NCI)
